{"source": "patent US20210196747A1", "about": "“METABOLISM IMPROVING AGENT” (University of the Ryukyus, priority 2018, published 2021)", "tested_on": "model rat of the present invention (13LK freely fed)", "assay": "Alkalizing agent (citrate or sodium bicarbonate) given to the 13LK-fed model rat: urine pH and urinary corticosterone excretion (Example 3)", "assay_type": "in vivo", "conditions": "13LK model rat, 1 week, n = 8; for Urine pH: 13LK control 5.7 ± 0.2; for Urine corticosterone: 13LK control 486 ± 115", "protocol": "Citrate or sodium bicarbonate was administered as an alkalizing agent using the model rat of the present invention prepared in Example 1 (13LK was freely fed as a feed for one week), and the results of confirming urine pH and urinary glucocorticoid (corticosterone) excretion are shown in Table 3. Urine pH increased and corticosterone excretion decreased in both the citrate administration group and the sodium bicarbonate administration group as compared to the control group.", "data": [{"molecule": "O=C([O-])O.[Na+]", "note": "[NaHCO3, sodium bicarbonate]", "values": [{"measurement": "Urine pH", "value": "6.8 ± 0.6"}, {"measurement": "Urine pH", "setting": "listed as sodium bicarbonate", "value": "increased"}, {"measurement": "Urine corticosterone", "value": "309 ± 116", "unit": "ng/day"}, {"measurement": "Urine corticosterone", "setting": "listed as sodium bicarbonate", "value": "decreased"}]}]}
